Reference: patent publication US6582680B2, “Acid resistant film forming dental composition and method of use” (priority 1999, dated 2003)
Where a name gives a salt, the structure may show the parent alone.

Tested on: dentin postoperative hypersensitivity of human teeth
Test: Clinical evaluation of post-operative dentin hypersensitivity in amalgam restoration patients
Type: in vivo
Method: Prior to anesthesia for pre-treatment evaluation and during the first week of treatment, the patients completed a questionnaire on pain. The patients were also evaluated post-operatively at one, three and six weeks. […] Only patients who had elected amalgam restoration procedures at UAB were employed for this study. Each tooth received a pre anesthesia evaluation for dentin postoperative hypersensitive with a cold stimulus and air jet for thermal testing. For cold-ice testing, plastic needle covers were filled with water and frozen in a refrigerator freezer for uses as the standardized cold stimulus. For air stimulation, the standardized baseline air jet from a syringe was used to direct a blast of air at the offending tooth and defective restoration. A randomized number chart was employed to select teeth for either the Copalite® varnish controls or teeth to be treated with the product of the present invention, potassium oxalate dihydrate. Following pre operative data collection and anesthesia, each tooth then received a routine intracoronal Class-I or Class-II cavity preparations. […] Following cavity preparation, rinsing and gentle air drying, the entire preparation surface was treated with the Copalite® varnish without modification or removal of the smear layer. Each control cavity was treated with three layers of copal varnish and each layer gently air dispersed with a chip syringe before the following Copalite® coat was applied. […] The patient was also evaluated for postoperative hypersensitivity at one, three and six weeks post-operatively. […] Thermal tests for ice and an air jet were administered and data recorded as for all of the previous tests. For base line data, each patient was evaluated for pain or sensitivity to cold and air prior to their treatment in this study. […] All data was analyzed by one-way Analysis of Variance (ANOVA) at the 0.05 level depending on the cell sizes in our contingency table of treatments versus responses. […] Responses from each of the patients were recorded on separate sheets and then tabulated onto the master sheet according to the identified criteria. The raw data were recorded from the McGill Visual Analog Scale (MVAS) evaluation sheets. Data were recorded from all patients experiencing none, some or severe post-operative hypersensitivity based on the patient responses at the various intervals, preoperative at 0 days, and post treatment […]. […] The date for each of the McGill VA scales were tabulated and recorded on a separate sheet with the patient's name and clinical record number-as a 10 centimeter straight line with no identifying marks along its axis.

O=C(O)C(=O)O [potassium oxalate dihydrate, oxalate acid potassium salt, dihydrate 99%]
patients pain free following the first procedure (MVA survey, post-operative): 88.5%
reduction in post-operative pain (collective MVA scale data) (McGill Visual Analog Scale, treated teeth): dramatic reduction
overall pain reduction for the cold discriminator measurement (cold stimulus, compared with Copalite): greater reduction
reduction in sensitivity / reported pain to the various stimuli (especially cold), in response to direct questioning (patients, post-operatively after amalgam restoration): 80.3%
